# Reference: patent publication US20260265267A1, “NOVEL COMPOUNDS WITH MTORC2-INHIBITORY ACTIVITY AND USES THEREOF” (Aliad Biopharma, priority 2023, published 2026)
# How the values were obtained:
# mTORC2 = target: T1, mTORC2 (Homo sapiens, UniProt P42345); test: mTORC2 inhibitory activity in HeLa cells (Akt Ser473 phosphorylation, Western blot); type: cell-based; conditions: for selective inhibition of mTORC2: 40 μM, versus mTORC1; for selective inhibition of mTORC2 / remaining activity at 40 µM: 9 hours; for remaining activity at 40 µM: read-out: pSer473-AKT/AKT (% control); for inhibition at 40 µM: HeLa, 9 h, read-out: reduction in Akt Ser473 phosphorylation compared to the control group
# T1 construct: the following experiments were conducted in HeLa cells; endogenous in cells; host or cells: HeLa
# Procedure: (§1) Specifically, HeLa cells were cultured in a 5% CO2 incubator at 37° C. in DMEM (Dulbecco's Modified Eagles Media) medium supplemented with 10% FBS, penicillin (100 unit/ml), and streptomycin (100 μg/ml). Cultivation was started by seeding 4×10^5 cells in a 100 mm culture dish, and subculture was carried out every 3 days.
# (§2) Human cell line HeLa cells were seeded in a 60 mm culture dish at a density of 2×10^5 cells/plate, and cultured for 24 hours. Then, HeLa cells were treated with 70 types of compounds at a concentration of 40 μM each for 9 hours. HeLa cells were washed twice with cold 1×PBS, and then lysed with 100 μl of RIPA buffer (50 mM Tris-HCl (pH7.4), 0.25% sodium deoxycholate, 50 mM NaF, 1% NP-40, 150 mM NaCl, 1 mM β-glycerophosphate, 1 mM PMSF, 1 mM NaVO4, 1 μg/ml leupeptin, 1 μg/ml pepstatin A, 10 nM calyculin A, 10 μg/ml aprotinin, 1 mM EDTA) to hemolyze the cell membrane. Then, the lysates were centrifuged at 12,000 rpm at 4° C. for 10 minutes to collect the supernatant, which is cell lysate. Protein concentration in the cell lysate was determined using the BCA protein assay kit (Thermo Fisher Scientific), and equal amounts of protein were separated by SDS-PAGE.
# (§3) Western blot analysis was performed by the following method. […] After washing the membrane three times for 5 minutes each with TBS-T buffer, it was incubated with primary antibodies diluted in TBS-T buffer containing 5% skim milk or 5% BSA overnight at 4° C. Subsequently, the membrane was washed three times for 5 minutes each with TBS-T buffer, and then incubated with secondary antibodies diluted in TBS-T buffer containing 5% skim milk at room temperature for 30 minutes. The membrane was washed five times for 5 minutes each with TBS-T buffer containing 5% skim milk, and then the protein bands bound by the secondary antibody were detected using a chemiluminescence method. The primary antibodies used were Akt (cell signaling, #4691), pAkt(S473) (Cell signaling, #4060), p70S6K (Cell signaling, #S6198), pp70S6K(T389) (cell signaling, #9205S), LC3-II (MBL, #PM036), and the secondary antibodies used were HRP conjugated anti-rabbit (Jackson immunoresearch laboratory, #711-035-152) and HRP conjugated anti-mouse IgG (Jackson immunoresearch laboratory, #515-035-072).
# As an mTORC2 activity indicator in HeLa cells, the level of Akt Ser473 phosphorylation was selected as a marker, and the phosphor-Akt (Ser473) signal obtained from Western blot analysis was normalized to the pan-Akt signal, and the data were expressed as a percentage relative to the control group treated with DMSO only, which is a vehicle.
# mTORC1 = target: T2, mTORC1 (Homo sapiens, UniProt P42345); test: mTORC1 inhibitory activity in HeLa cells (p70S6K Thr389 phosphorylation, Western blot); type: cell-based; conditions: for remaining activity at 40 µM: read-out: pThr389-S6K/S6K (% control); for inhibition at 40 µM: HeLa, 9 h, read-out: reduction in p70S6K Thr389 phosphorylation compared to the control group
# T2 construct: the following experiments were conducted in HeLa cells; endogenous in cells; host or cells: HeLa
# Procedure: as §1, §2, §3
# As an mTORC1 activity indicator in HeLa cells, the level of p70S6K Thr389 phosphorylation was selected as a marker, and the level of phosphor-p70S6K (Thr389) signal measured by Western blot analysis was normalized to a level of pan-p70S6K signal, and then expressed as a percentage of the control group treated with only DMSO, which is a vehicle.
# LC3-II = LC3-II formation as indicator of autophagy in HeLa cells (Western blot); type: cell-based, human; conditions: Homo sapiens, 9 hours, read-out: LC3-II (% control)
# Procedure: as §1, §2, §3
# LC3-II formation was selected as an indicator of autophagy in HeLa cells, and the LC3-II signal obtained from Western blot analysis was normalized to the pan-Akt signal and the data were expressed as a percentage relative to the control group treated with DMSO only, which is a vehicle.
selective inhibition of mTORC2 (mTORC2),remaining activity at 40 µM (mTORC2),inhibition at 40 µM (mTORC2),remaining activity at 40 µM (mTORC1; 9 hours),inhibition at 40 µM (mTORC1),"increase in S6K Thr389 phosphorylation (mTORC1; 40 μM, 9 hours)",Compound,activity at 40 µM (LC3-II)
–,100%,–,49%,> 20%,–,"O=C1c2cc3c(cc2OCc2c1ccc(NC1CCCCC1)c2F)OCO3 [HN2231, 8-(cyclohexylamino)-7-fluoro[2]benzoxepino[3,4-f]-1,3-benzodioxol-11(6H)-one]",122%
selectively inhibit mTORC2,54%,> 20%,191%,–,–,"CN(C)c1cc2c(cc1F)C(=O)c1cc3c(cc1OC2)OCO3 [HN2209, 8-(dimethylamino)-9-fluoro[2]benzoxepino[3,4-f]-1,3-benzodioxol-11(6H)-one]",124%
selectively inhibit mTORC2,64%,> 20%,257%,–,–,"COc1ccc(-c2ccc3c(c2)C(=O)c2cc(OC)c(OC)cc2SC3)cc1 [HN2306, 2,3-dimethoxy-9-(4-methoxyphenyl)dibenzo[b,e]thiepin-11(6H)-one]",–
–,140%,–,33%,> 20%,–,"COc1cc2c(cc1OC)C(=O)c1cc(F)c(NC3CCCC3)cc1CC2 [HN2321, 2-(cyclopentylamino)-3-fluoro-7,8-dimethoxy-10,11-dihydro-5H-dibenzo[a,d][7]annulen-5-one]",160%
selectively inhibit mTORC2,38%,> 20%,224%,–,–,"Cc1ccc(-c2ccc3c(c2)C(=O)c2cc4c(cc2OC3)OCO4)cc1 [HN2217, 9-(p-tolyl)[2]benzoxepino[3,4-f]-1,3-benzodioxol-11(6H)-one]",149%
–,47%,> 20%,64%,> 20%,–,"COc1cc2c(cc1OC)C(=O)c1cc(-c3cc(OC)c(OC)c(OC)c3)ccc1CS2 [HN2305, 2,3-dimethoxy-9-(3,4,5-trimethoxyphenyl)dibenzo[b,e]thiepin-11(6H)-one]",–
selectively inhibit mTORC2,73%,> 20%,122%,–,–,"CS(=O)(=O)Nc1ccc2c(c1F)COc1cc3c(cc1C2=O)OCO3 [HN2302, N-(7-fluoro-11-oxo-6,11-dihydro-[1,3]dioxolo[4′,5′:4,5]benzo[1,2-b]benzo[e]oxepin-8-yl)methanesulfonamide]",108%
–,20%,> 20%,38%,> 20%,–,"COc1cc2c(cc1OC)C(=O)c1cc(F)c(N3CCN(c4ccccc4)CC3)cc1CC2 [HN2316, 3-fluoro-7,8-dimethoxy-2-(4-phenylpiperazin-1-yl)-10,11-dihydro-5H-dibenzo[a,d][7]annulen-5-one]",256%
–,107%,–,69%,> 20%,–,"COc1cc2c(cc1OC)C(=O)c1cc(F)c(NCc3ccccc3)cc1CC2 [HN2317, 2-(benzylamino)-3-fluoro-7,8-dimethoxy-10,11-dihydro-5H-dibenzo[a,d][7]annulen-5-one]",–

# The remaining lines, values behind:
Compound,selective inhibition of mTORC2 (mTORC2),remaining activity at 40 µM (mTORC2),inhibition at 40 µM (mTORC2),remaining activity at 40 µM (mTORC1; 9 hours),inhibition at 40 µM (mTORC1),"increase in S6K Thr389 phosphorylation (mTORC1; 40 μM, 9 hours)",activity at 40 µM (LC3-II)
"COc1ccc(CNc2cc3c(cc2F)C(=O)c2cc4c(cc2OC3)OCO4)cc1 [HN2326, 9-fluoro-8-((4-methoxybenzyl)amino)-[1,3]dioxolo[4′,5′:4,5]benzo[1,2-b]benzo[e]oxepin-11(6H)-one]",selectively inhibit mTORC2,69%,> 20%,153%,–,–,404%
"O=C1c2cc3c(cc2OCc2c1ccc(NC1CCCC1)c2F)OCO3 [HN2319, 8-(cyclopentylamino)-7-fluoro-[1,3]dioxolo[4′,5′:4,5]benzo[1,2-b]benzo[e]oxepin-11(6H)-one]",–,79%,> 20%,78%,> 20%,–,157%
"COc1ccc(CNc2cc3c(cc2F)C(=O)c2cc4c(cc2OC3)OCO4)cc1OC [HN2329, 8-((3,4-dimethoxybenzyl)amino)-9-fluoro-[1,3]dioxolo[4′,5′:4,5]benzo[1,2-b]benzo[e]oxepin-11(6H)-one]",–,36%,> 20%,57%,> 20%,–,386%
"O=C1c2cc(-c3ccoc3)ccc2COc2cc3c(cc21)OCO3 [HN2216, 9-(3-furanyl)[2]benzoxepino[3,4-f]-1,3-benzodioxol-11(6H)-one]",selectively inhibit mTORC2,64%,> 20%,121%,–,21%,99%
"COc1cc2c(cc1OC)C(=O)c1cc(-c3ccc(C)cc3)ccc1CS2 [HN2307, 2,3-dimethoxy-9-(p-tolyl)dibenzo[b,e]thiepin-11(6H)-one]",selectively inhibit mTORC2,72%,> 20%,106%,–,–,–
"COc1cc2c(cc1OC)C(=O)c1cc(-c3ccc(Cl)cc3)ccc1CS2 [HN2309, 9-(4-chlorophenyl)-2,3-dimethoxydibenzo[b,e]thiepin-11(6H)-one]",selectively inhibit mTORC2,66%,> 20%,106%,–,–,–
"O=C1c2cc3c(cc2OCc2c1ccc(F)c2F)OCO3 [HN2225, 7,8-difluoro[2]benzoxepino[3,4-f]-1,3-benzodioxol-11(6H)-one]",selectively inhibit mTORC2,66%,> 20%,100%,–,–,100%
"O=C1c2cc(F)c(N3CCC(Cc4ccccc4)CC3)cc2COc2cc3c(cc21)OCO3 [HN2222, 8-(4-benzylpiperidin-1-yl)-9-fluoro[2]benzoxepino[3,4-f]-1,3-benzodioxol-11(6H)-one]",selectively inhibit mTORC2,69%,> 20%,95%,–,–,89%
"COc1cccc(CNc2cc3c(cc2F)C(=O)c2cc4c(cc2OC3)OCO4)c1 [HN2325, 9-fluoro-8-((3-methoxybenzyl)amino)-[1,3]dioxolo[4′,5′:4,5]benzo[1,2-b]benzo[e]oxepin-11(6H)-one]",–,87%,–,44%,> 20%,–,249%
"CS(=O)(=O)Nc1cc2c(cc1F)C(=O)c1cc3c(cc1OC2)OCO3 [HN2301, N-(9-fluoro-11-oxo-6,11-dihydro-[1,3]dioxolo[4′,5′:4,5]benzo[1,2-b]benzo[e]oxepin-8-yl)methanesulfonamide]",selectively inhibit mTORC2,54%,> 20%,81%,–,–,96%
"O=C1c2cc(F)c(N3CCCCC3)cc2COc2cc3c(cc21)OCO3 [HN2211, 8-(piperidinyl)-9-fluoro[2]benzoxepino[3,4-f]-1,3-benzodioxol-11(6H)-one]",–,118%,–,77%,> 20%,–,122%
